Test results taken from patent publication US4894460A (Pierrel S.p.A., priority 1982, dated 1990).
Like-named read-outs stand apart in the source and are kept apart here.

Legend:
in vivo = details: mouse, iv, mice, i.v. in dimethylsulfoxide, after seven days, Litchfield and Wilcoxon
Experimental: Intravenous Toxicity in Mice
Male CD1 mice from Charles River (Italy), weighing 25 g were used. Compounds were administered intravenously (i.v.), dissolved in dimethylsulfoxide, and the volume of administration was 0.01 ml per 10 g of body weight. The LD50 after seven days, was calculated according to the method of Litchfield and Wilcoxon (Experimental Therapeutics 96, 99 (1949)).

taenia coli = test: Antagonistic activity to calcium in the taenia coli of guinea pigs (CaCl2-induced contractions, in vitro); format: cell-based, Hartley albino guinea pigs; details: for IC50: Cavia porcellus, 10 min, read-out: Calcium antagonistic activity in vitro ED50; for Inhibition of contractions due to CaCl2 after washing of the tissue: taenia coli, repeated washing
Experimental: Antagonistic Activity to Calcium in the Taenia Coli of Guinea Pigs
Hartley albino guinea pigs of average weight 450 g were used. The calcium antagonistic activity was determined stimulating the taenia coli, previously depolarized, with a single submaximal concentration of CaCl2 (10^-3 M), at intervals of 20 minutes (according to the method Naunyn Schmied. Arch. Pharmacol. 318, 235 (1982)). The products were left in contact with the preparation for 10 minutes. The ED50 were calculated from the percentage of maximum inhibition.

[1] = test system: Spontaneous Hypertensive Rats (SHR); test: Hypotensive activity in spontaneous hypertensive rats (SHR); format: in vivo, Male SHR (Okamoto) rats; details: for ED (25%): Rattus norvegicus, po, p.o. in 0.4% carboxymethyl cellulose, systolic arterial pressure, read-out: Hypotensive activity in SHR ED^SABP -25%; for Hypotensive activity compared with Nifedipine / Duration of hypotensive activity (still present after) / Hypotensive activity relative to Nifedipine: p.o.; for Hypotensive activity compared with Nifedipine: versus Nifedipine; for Hypotensive activity relative to Nifedipine: multiple of Nifedipine activity
Experimental: Hypotensive Activity in Spontaneous Hypertensive Rats (SHR)
Male SHR (Okamoto), of 70-100 days of age were used. The systolic arterial pressure (SABP) was determined by applying to the tail of the animal a pressure transducer with a sleeve connected to a BP-Recorder (W-W Electronic of Basel). The animals were previously warmed to 39° C. for a period of 15-20 minutes in a ventilated chamber.
The rats were previously trained to the registration for 1-2 days prior to the start of the experiment which consisted of a basic registration, the pharmacological treatment and then of subsequent registrations one hour and three hours after the treatment.
All the products were administered orally (p.o.), suspended in 0.4% carboxymethyl cellulose (Methocel); the volume of vehicle was 2 ml per kg.
The compounds of formula (I) were tested at three dose levels and the value of ED-25% was determined.

[2] = guinea pig taenia coli, depolarized, CaCl2 10^-3 M, 10 min contact, from maximum inhibition

Row | SMILES | LD50 at 168 h (in vivo) [mg/kg] | IC50 (taenia coli; [2]) [nM] | ED (25%) [1] [mg/kg] | Inhibition of contractions due to CaCl2 after washing of the tissue (taenia coli) | Hypotensive activity compared with Nifedipine [1] | Duration of hypotensive activity (still present after) [1] [h] | Hypotensive activity relative to Nifedipine [1] | IC50 (taenia coli) [nM]
1 | COC(=O)C1=C(C)NC(C)=C(C(=O)OCCN2CCN(c3ccccc3)CC2)C1c1cccc([N+](=O)[O-])c1 (stereo not drawn) [0219A, 2-(4-Phenyl)piperazino-ethyl 2,6-dimethyl-4-(3-nitrophenyl)-5-methoxycarbonyl-1,4-dihydropyridine-3-carboxylate] | 8.6 | 2.4 | 8.7 |  |  |  |  | 
2 | COC(=O)C1=C(C)NC(C)=C(C(=O)OCCN2CCN(c3nccs3)CC2)C1c1cccc([N+](=O)[O-])c1 (stereo not drawn) [0240A, 2-[4-(2-Thiazolyl)]piperazino-ethyl 2,6-dimethyl-4-(3-nitrophenyl)-5-methoxycarbonyl-1,4-dihydropyridine-3-carboxylate] | 7.1 | 4.2 | 31 |  |  |  |  | 
3 | COC(=O)C1=C(C)NC(C)=C(C(=O)OCCN2CCN(c3ncccn3)CC2)C1c1cccc([N+](=O)[O-])c1 (stereo not drawn) [0241A] | 34.6 | 4.6 | 72 | readily reversible |  |  |  | 
4 | COC(=O)C1=C(C)NC(C)=C(C(=O)OCCN2CCN(c3ccccc3OC)CC2)C1c1cccc([N+](=O)[O-])c1 (stereo not drawn) [0242A, 2-[4-(2-Methoxyphenyl)]-piperazino-ethyl 2,6-dimethyl-4-(3-nitrophenyl)-5-methoxycarbonyl-1,4-dihydropyridine-3-carboxylate] | 2.9 | 3.4 | 13.8 |  |  |  |  | 
5 | COC(=O)C1=C(C)NC(C)=C(C(=O)OCCN2CCN(c3ccccc3C)CC2)C1c1cccc([N+](=O)[O-])c1 (stereo not drawn) [0243A, 2-[4-(2-Tolyl)]piperazino-ethyl 2,6-dimethyl-4-(3-nitrophenyl)-5-methoxycarbonyl-1,4-dihydropyridine-3-carboxylate] | 14.7 | 1.9 | 6.6 |  |  |  |  | 
6 | COC(=O)C1=C(C)NC(C)=C(C(=O)OCCN2CCN(c3ccccc3Cl)CC2)C1c1cccc([N+](=O)[O-])c1 (stereo not drawn) [0248B] | 24.7 | 3 | 13.8 |  | superior activity |  |  | 
7 | COC(=O)C1=C(C)NC(C)=C(C(=O)OCCN2CCN(c3cccc(C(F)(F)F)c3)CC2)C1c1cccc([N+](=O)[O-])c1 (stereo not drawn) [0249B] | 35.3 | 22 | 6.6 |  | superior activity | ≥ 30 | about twice the activity of Nifedipine | 
8 | COC(=O)C1=C(C)NC(C)=C(C(=O)OCCN2CCN(c3ccc(F)cc3)CC2)C1c1cccc([N+](=O)[O-])c1 (stereo not drawn) [0250B] | 17.7 | 2.5 | 7.5 |  | superior activity | ≥ 30 | about twice the activity of Nifedipine | 
9 | COC(=O)C1=C(C)NC(C)=C(C(=O)OCCN2CCN(c3ccccn3)CC2)C1c1cccc([N+](=O)[O-])c1 (stereo not drawn) [0251B] | 12.6 | 4.6 | 34 |  |  |  |  | 
10 | COC(=O)C1=C(C)NC(C)=C(C(=O)OCCN2CCN(c3cccc(Cl)c3)CC2)C1c1cccc([N+](=O)[O-])c1 (stereo not drawn) [0255B] | 25.5 | 3.5 | 6.3 |  | superior activity |  |  | 
11 | COC(=O)C1=C(C)NC(C)=C(C(=O)OCCN2CCN(c3ccc(Cl)cc3)CC2)C1c1cccc([N+](=O)[O-])c1 (stereo not drawn) [0264B] | 32.1 | 6.4 | 6.3 |  | superior activity | ≥ 30 | about twice the activity of Nifedipine | 
12 | COC(=O)C1=C(C)NC(C)=C(C(=O)OCCN2CCN(c3ccc(OC)cc3)CC2)C1c1cccc([N+](=O)[O-])c1 (stereo not drawn) [0266B] | 22.7 | 3.6 | 10.7 |  |  |  |  | 
13 | CC1=C(C(=O)OCCN2CCN(c3ccc(F)cc3)CC2)C(c2cccc([N+](=O)[O-])c2)C(C(=O)OCC(C)C)=C(C)N1 (stereo not drawn) [0282C] | 27.5 | 4.9 | 3.9 |  |  |  |  | 
14 | COCCOC(=O)C1=C(C)NC(C)=C(C(=O)OCCN2CCN(c3ccc(F)cc3)CC2)C1c1cccc([N+](=O)[O-])c1 (stereo not drawn) [0283C] | 7.8 | 2.6 | 8.3 |  |  |  |  | 
15 | CCOC(=O)C1=C(C)NC(C)=C(C(=O)OCCN2CCN(c3ccc(F)cc3)CC2)C1c1cccc([N+](=O)[O-])c1 (stereo not drawn) [0284C] | 9.5 | 1.3 | 5.3 |  |  |  |  | 
16 | COC(=O)C1=C(C)NC(C)=C(C(=O)OCCN2CCN(c3ccc(Cl)c(Cl)c3)CC2)C1c1cccc([N+](=O)[O-])c1 (stereo not drawn) [0285C] | 39 | 10.5 | 10.2 |  |  |  |  | 
17 | CC1=C(C(=O)OCCN2CCN(c3ccccc3)CC2)C(c2cccc([N+](=O)[O-])c2)C(C(=O)OCC(C)C)=C(C)N1 (stereo not drawn) [0289C, 2-(4-Phenyl)piperazinoethyl-2,6-dimethyl-4-(3-nitrophenyl)-5-isobutoxycarbonyl-1,4-dihydropyridine-3-carboxylate] | 12 | 6.3 | 2.2 |  |  |  |  | 
18 | COCCOC(=O)C1=C(C)NC(C)=C(C(=O)OCCN2CCN(c3ccccc3)CC2)C1c1cccc([N+](=O)[O-])c1 (stereo not drawn) [0290C, 2-(4-Phenyl)piperazinoethyl-2,6-dimethyl-4-(3-nitrophenyl)-5-(2-methoxy)ethoxycarbonyl-1,4-dihydropyridine-3-carboxylate] | 7.5 | 3 | 16.7 |  |  |  |  | 
19 | CCOC(=O)C1=C(C)NC(C)=C(C(=O)OCCN2CCN(c3ccccc3)CC2)C1c1cccc([N+](=O)[O-])c1 (stereo not drawn) [0291C] | 25 | 3.9 | 6.6 |  |  |  |  | 
20 | CC1=C(C(=O)OCCN2CCN(c3ccc(Cl)cc3)CC2)C(c2cccc([N+](=O)[O-])c2)C(C(=O)OCC(C)C)=C(C)N1 (stereo not drawn) [0292C, 2-[4-(4-Chlorophenyl)]piperazinoethyl-2,6-dimethyl-4-(3-nitrophenyl)-5-isobutoxycarbonyl-1,4-dihydropyridine-3-carboxylate] | 35 | 94 | 11.7 |  |  |  |  | 
21 | COCCOC(=O)C1=C(C)NC(C)=C(C(=O)OCCN2CCN(c3ccc(Cl)cc3)CC2)C1c1cccc([N+](=O)[O-])c1 (stereo not drawn) [0293C, 2-[4-(4-Chlorophenyl)]piperazinoethyl-2,6-dimethyl-4-(3-nitrophenyl)-5-(2-methoxy)ethoxycarbonyl-1,4-dihydropyridine-3-carboxylate] | 16 | 4.1 | 10.5 |  |  |  |  | 
22 | CCOC(=O)C1=C(C)NC(C)=C(C(=O)OCCN2CCN(c3ccc(Cl)cc3)CC2)C1c1cccc([N+](=O)[O-])c1 (stereo not drawn) [0294C, 2-[4-(4-Chlorophenyl)]piperazinoethyl-2,6-dimethyl-4-(3-nitrophenyl)-5-ethoxycarbonyl-1,4-dihydropyridine-3-carboxylate] | 19 | 5.1 | 4.2 |  |  |  |  | 
23 | COC(=O)C1=C(C)NC(C)=C(C(=O)OCCN2CCN(c3ccc([N+](=O)[O-])cc3)CC2)C1c1cccc([N+](=O)[O-])c1 (stereo not drawn) [0295C, 2-[4-(4-Nitrophenyl)]piperazinoethyl-2,6-dimethyl-4-(3-nitrophenyl)-5-methoxycarbonyl-1,4-dihydropyridine-3-carboxylate] | 38 |  | > 20 |  |  |  |  | 11
24 | COC(=O)C1=C(C)NC(C)=C(C(=O)OCCN2CCN(c3ccc([N+](=O)[O-])c(C(F)(F)F)c3)CC2)C1c1cccc([N+](=O)[O-])c1 (stereo not drawn) [0296C, 2-[4-(3-Trifluoromethyl-4-nitrophenyl)]piperazinoethyl-2,6-dimethyl-4-(3-nitrophenyl)-5-methoxycarbonyl-1,4-dihydropyridine-3-carboxylate] | 55 |  | 87 |  |  |  |  | 19
25 | COC(=O)C1=C(C)NC(C)=C(C(=O)OCCN(C)Cc2ccccc2)C1c1cccc([N+](=O)[O-])c1 (stereo not drawn) [Nicardipine, reference compound] |  | 2.3 | 8.6 |  |  |  |  | 
26 | COC(=O)C1=C(C)NC(C)=C(C(=O)OC)C1c1ccccc1[N+](=O)[O-] [Nifedipine, reference compound] |  |  | 25 | readily reversible |  |  |  | 2.6
27 | CCOC(=O)C1=C(C)NC(C)=C(C(=O)OC)C1c1cccc([N+](=O)[O-])c1 (stereo not drawn) [Nitrendipine, reference compound] |  | 1.9 |  |  |  |  |  | 
